Like-named read-outs stand apart in the source and are kept apart here. Bounds are passed on as bounds.

Series [1] addresses T1, Sphingomyelin Synthase 2 (SMS2) (Homo sapiens, UniProt Q8NHU3).
T1 construct: made in house; used as homogenate
T1 sequence (Q8NHU3 1-365): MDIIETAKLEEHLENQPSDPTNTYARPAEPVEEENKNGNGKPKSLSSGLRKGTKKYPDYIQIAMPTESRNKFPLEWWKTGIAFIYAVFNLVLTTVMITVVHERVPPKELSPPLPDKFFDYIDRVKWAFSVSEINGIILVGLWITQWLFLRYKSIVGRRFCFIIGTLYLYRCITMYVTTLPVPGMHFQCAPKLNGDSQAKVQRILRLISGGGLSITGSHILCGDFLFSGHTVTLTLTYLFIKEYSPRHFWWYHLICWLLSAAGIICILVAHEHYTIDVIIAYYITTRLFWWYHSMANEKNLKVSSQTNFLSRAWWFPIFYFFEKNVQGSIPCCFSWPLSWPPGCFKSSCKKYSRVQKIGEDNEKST
The experiment in a line: In vitro inhibition of sphingomyelin synthase 2, HPLC fluorogenic quantitative detecting method (C6-NBD-ceramide to C6-NBD-SM, SMS2 high-expressed insect cell homogenate). Conditions: for inhibition at 10 µM / inhibition at 5 µM / inhibition at 50 µM: read-out: inhibition rate; for IC50: read-out: SMS2 Median Inhibitory Concentration IC50. Type of series: biochemical. From the text:
The second aim of the present invention is to show the use of 2-alkoxy benzene formyl arylamines in preparing SMS small-molecule inhibitors. This invention evaluate SMS inhibitory activity of 2-alkoxy benzene formyl arylamines as scheme I through HPLC fluorogenic quantitative detecting method reported (Xiaodong Deng; Hong Sun; et al. Analytical Letters, 2012, 45:12, 1581-1589), which can make it possible to calculate the catalytic activity difference of SMS treated with inhibitors or not through content changes of NBD-ceramide and NBD-sphingomyelin.
9. The organic solvents were purchased from Shanghai Sinopharm Reagent Company; methanol is of HPLC grade; water is ultrapure water filtrated by Milli-Q pump and deionized and ultrafiltrated by 0.22 μm ultrafiltration membrane. Other biological supplies are purchased in domestic companies. 10. Preparation of SMS homogenate extraction buffer (Buffer1): (50 mM Tris hydrochloride, pH 7.4, 5% anhydrous sucrose, 1 mM ethylenediaminetetraacetic acid) 1.2114 g tris(hydroxymethyl)aminomethane hydrochloride (Tris-HCl) was dissolved in 100 ml distilled water. Then 84 ml 0.1 mol/L hydrochloric acid was added. Constant volume to 200 ml. Finally, 10 g sucrose and 58.45 mg EDTA were dissolved in the mixture. 11. Preparation of SMS test buffer […]: (100 mM Hepes, 30 mM MnCl2, 3% fatty acid free BSA): 1.1916 g 4-(2-hydroxyethyl)-1-peperazineethanesulfonic acid (Hepes), 0.2969 g MnCl2.4H2O and 0.3 g fatty acid free bovine serum albumin were dissolved in distilled water then constant volume to 50 ml. 12. Preparation of under tested compound solution: To each accurate weighed compound for 1˜2 mg, an appropriate amount of DMSO was added to formulate a stock solution of 6 mM precisely. To a certain volume of the DMSO stock solution of the test compound, the appropriate volume of DMSO was added to dilute the solution to the desired concentration. 13. SMS2 high-expressed insect cell homogenate was prepared by Xu Yanhui group from Institutes of Biomedical Sciences, Fudan University. Part 1 Activity Assay for Inhibition of 2-Alkoxy-Benzoyl Aromatic Amines to Sphingomyelin Synthase 2
250 μL tri-distilled water, 30 μL Buffer2, 4 μL SMS2 high-expressed insect cell homogenate (total protein content is 0.5 μg/μL) and 10 μL DMSO or DMSO solution of under tested compound were added to 1.5 mL eppendorf tube, vortex mixed for 30 seconds and then incubated in a 37° C. water bath for 0.5 h. 3 μL ethanol solution of DMPC (40 mM) and 3 μL ethanol solution of C6-NBD-Ceramide (1.16 mM) were added, vortex mixed for 30 seconds, and then incubate in a 37° C. water bath for 2.0 hours. To it 600 μL anhydrous ethanol was added vortex mixed for 1 minute and centrifuged 10 minutes in 10000 rpm and 600 μL supernatant was taken out and stored at 4° C. for HPLC analysis.
Using the same HPLC fluorogenic quantitative detecting method as reference (Xiaodong Deng; Hong Sun; et al. Analytical Letters, 2012, 45:12, 1581-1589) to analysize samples obtained above. Analysize and record peak areas of C6-NBD-SM (Asm) and C6-NBD-Ceramide (Acer) of each sample from blank group, positive control group (compound D2) and under tested compound group. The data were parallelly determined for 3 times. Calculate inhibition rate from the formula below: […]
The DMSO stock solution of under tested compound (6 mM) was diluted stepwise into five concentration gradient. 10 μL solution of each concentration was added into the trial system to prepare samples with the method mentioned in the first step of application case 12. The Asm values of the five concentration solution of tested compound were measured, and the inhibition rate under the five concentration were calculated and fitted to obtain median inhibitory concentration (IC50). Each compound was measured three parallel groups. SMS2 median inhibitory concentration of Scheme I-1˜I-60 are listed below in Table 1: […]

Where [2] appears, read: five concentrations, three parallel groups, experimental value.

By melting point is commonly meant the temperature, or range, at which the solid turns liquid. Broadly, the inhibition is the relative decrease from the control value, in per cent. Compound `O=C(Nc1cccnc1)c1ccccc1OCc1cccc2ccccc12` [Scheme I-45, 2-((naphthalen-1-yl)methoxy)-N-(pyridin-3-yl) benzamide] displayed a melting point of 91.4 to 93.9 °C. Also, the inhibition at 10 µM in series [1] (at 10 μM) came out at 78%. Moreover, in series [1] (setting [2]), the IC50 came to 2.6 µM.

As to `O=C(Nc1cccnc1)c1ccccc1OCc1cccc(F)c1` [Scheme I-2, 2-(3-fluoro-benzyloxy)-N-(pyridin-3-yl) benzamide], in series [1], the IC50 came to 1.6 µM and the inhibition at 5 µM was 69.3%.

For the compound `O=C(Nc1cccnc1)c1ccccc1OCc1cc(Cl)ccc1OCCN1CCOCC1` [Scheme I-51, 2-((5-chloro-2-(2-morpholino-ethoxy))benzyloxy)-N-(pyridin-3-yl) benzamide], in series [1] (at 10 μM), the inhibition at 10 µM was determined as 24.9%. The IC50 in series [1] (setting [2]) was greater than 50 µM.

Consider `O=C(Nc1cccnc1)c1ccccc1OCc1ccccc1F` [Scheme I-1, 2-(2-fluoro-benzyloxy)-N-(pyridin-3-yl) benzamide], for which, in series [1], the IC50 turned out to be 3.5 µM and the inhibition at 5 µM came to 53.8%.

In turn, “2-(2-cyano-benzyloxy)-N-(pyridin-3-yl) benzamide [Scheme I-6]” displayed an inhibition rate in series [1] (at 50 μM) of 50.0%. Also, in series [1] (setting [2]), the IC50 stood at 31.8 µM.

`O=C(Nc1cccnc1)c1ccccc1OCc1ccccc1OCCCCCl` [Scheme I-34, 2-(2-(4-chlorobutoxy)benzyloxy)-N-(pyridin-3-yl) benzamide]: the inhibition at 10 µM in series [1] (at 10 μM) stood at 85.5%. For the same compound, the IC50 in series [1] (setting [2]) was determined as 1.4 µM.

In turn, “2-((5-chloro-hexyloxy) benzyloxy)-N-(pyridin-3-yl) benzamide [Scheme I-39]” returned an inhibition rate in series [1] (at 5 μM) of 85.5%. Also, the IC50 in series [1] (setting [2]) was 0.5 µM.

Consider `COCCCOc1ccc(Cl)cc1COc1ccccc1C(=O)Nc1cccnc1` [Scheme I-49, 2-((5-chloro-2-(3-methoxy-propoxy))benzyloxy)-N-(pyridin-3-yl) benzamide], for which the inhibition at 10 µM in series [1] (at 10 μM) was 75.3%. The IC50 in series [1] (setting [2]) amounted to 4.1 µM.

As to `COc1ccc(COc2ccccc2C(=O)Nc2cccnc2)cc1` [Scheme I-5, 2-((4-methoxy)benzyloxy)-N-(pyridin-3-yl) benzamide], in series [1] (at 50 μM), the inhibition at 50 µM is 23%. Further, the IC50 in series [1] (setting [2]) is greater than 100 µM.

The compound `COc1ccc(C(=O)Nc2cccnc2)c(OCc2ccccc2Cl)c1` [Scheme I-60, 2-(2-chloro-benzyloxy)-4-methoxy-N-(pyridin-3-yl) benzamide] returned a melting point of 129.2 to 131.9 °C. The inhibition at 10 µM in series [1] (at 10 μM) came out at 13.3%. In series [1] (setting [2]), the IC50 was greater than 50 µM.

As to `O=C(Nc1cccnc1)c1ccccc1OCc1cccc([N+](=O)[O-])c1` [Scheme I-3, 2-(3-nitro-benzyloxy)-N-(pyridin-3-yl) benzamide], in series [1] (at 50 μM), the inhibition at 50 µM was 64.6%. For the same compound, in series [1] (setting [2]), the IC50 was greater than 50 µM.

In the case of “2-(4-bromo-benzyloxy)-N-(pyridin-3-yl) benzamide [Scheme I-9]”, the inhibition rate in series [1] (at 50 μM) is given as 14.7%. In addition, the IC50 in series [1] (setting [2]) was greater than 100 µM.

“2-((4-nitro) benzyloxy)-N-(pyridin-3-yl) benzamide [Scheme I-13]” came in with an inhibition rate in series [1] (at 50 μM) of 11.8%. Moreover, the IC50 in series [1] (setting [2]) was greater than 100 µM.

On to `O=C(Nc1cccnc1)c1ccccc1OCc1ccccc1OCCCCCCl` [Scheme I-35, 2-(2-(5-chloro-pentoxy)benzyloxy)-N-(pyridin-3-yl) benzamide], for which, in series [1] (at 10 μM), the inhibition at 10 µM stood at 91.3%. For the same compound, the IC50 in series [1] (setting [2]) worked out at 0.7 µM.

Consider “2-((2-chloro-5-fluoro) benzyloxy)-N-(pyridin-3-yl) benzamide [Scheme I-16]”, for which, in series [1] (at 5 μM), the inhibition rate stood at 75.7%. In addition, the IC50 in series [1] (setting [2]) was found to be 0.7 µM.

Compound `CCCCCCOc1ccccc1COc1ccccc1C(=O)Nc1cccnc1` [Scheme I-37, 2-((2-hexyloxy)benzyloxy)-N-(pyridin-3-yl) benzamide] gave an inhibition rate in series [1] (at 10 μM) of 90.2%. In addition, the IC50 in series [1] (setting [2]) is 0.7 µM.

On to `O=C(Nc1cncnc1)c1ccccc1OCc1ccccc1` [Scheme I-53, 2-benzyloxy-N-(pyrimidin-5-yl) benzamide], for which the melting point lay within 112.3 to 114.9 °C. For the same compound, in series [1] (at 10 μM), the inhibition at 10 µM turned out to be 38.4%. Further, the IC50 in series [1] (setting [2]) is greater than 25 µM.

`O=C(Nc1cccnc1)c1ccccc1OCc1c(F)cccc1Cl` [Scheme I-32, 2-((2-chloro-6-fluoro)benzyloxy)-N-(pyridin-3-yl) benzamide]: in series [1], the IC50 is 1.5 µM and the inhibition at 10 µM was found to be 82.3%.

“2-(3-cyano-benzyloxy)-N-(pyridin-3-yl) benzamide [Scheme I-4]” returned an inhibition rate in series [1] (at 50 μM) of 66.0%. The IC50 in series [1] (setting [2]) stood at 60.7 µM.

Consider `Cc1ccc(Cl)cc1COc1ccccc1C(=O)Nc1cccnc1` [Scheme I-43, 2-((5-chloro-2-methyl)benzyloxy)-N-(pyridin-3-yl) benzamide], for which the inhibition rate in series [1] (at 5 μM) turned out to be 74.8%. Also, in series [1] (setting [2]), the IC50 was 1.1 µM.

Turning to “2-((2-methoxy-5-chloro) benzyloxy)-N-(pyridin-3-yl) benzamide [Scheme I-31]”, the inhibition rate in series [1] (at 10 μM) is 92.4%. For the same compound, the IC50 in series [1] (setting [2]) came to 0.7 µM.

With “2-((5-fluoro-2-methyl) benzyloxy)-N-(pyridin-3-yl) benzamide [Scheme I-21]”, the inhibition rate in series [1] (at 10 μM) was 84.7%. For the same compound, the IC50 in series [1] (setting [2]) was 0.7 µM.

For the compound “2-((2-ethyl) benzyloxy)-N-(pyridin-3-yl) benzamide [Scheme I-27]”, the inhibition rate in series [1] (at 5 μM) amounted to 78.4%. For the same compound, the IC50 in series [1] (setting [2]) amounted to 0.9 µM.

On to `O=C(O)c1ccc(COc2ccccc2C(=O)Nc2cccnc2)cc1` [Scheme I-46, 4-((2-(pyridin-3-ylcarbamoyl)phenoxy)methyl) benzoic acid], for which the inhibition at 10 µM in series [1] (at 10 μM) came to 2.6%. Moreover, the IC50 in series [1] (setting [2]) was greater than 100 µM.

“2-((4-trifluoromethyl) benzyloxy)-N-(pyridin-3-yl) benzamide [Scheme I-20]” had an inhibition rate in series [1] (at 10 μM) of 3.9%. For the same compound, the IC50 in series [1] (setting [2]) is greater than 100 µM.

On to “2-((4-methyl) benzyloxy)-N-(pyridin-3-yl) benzamide [Scheme I-14]”, for which the inhibition rate in series [1] (at 50 μM) came out at 69.0%. In series [1] (setting [2]), the IC50 was greater than 25 µM.

As to `O=C(Nc1cccnc1)c1ccc(Br)cc1OCc1ccccc1Cl` [Scheme I-58, 4-bromo-2-(2-chloro-benzyloxy)-N-(pyridin-3-yl) benzamide], in series [1] (at 10 μM), the inhibition at 10 µM was 19.4%. Further, in series [1] (setting [2]), the IC50 is greater than 50 µM.

Take `Cc1cccc(COc2ccccc2C(=O)Nc2cccnc2)c1` [Scheme I-10, 2-((3-methyl)benzyloxy)-N-(pyridin-3-yl) benzamide]: the inhibition at 50 µM in series [1] (at 50 μM) stood at 69.5%. Moreover, the IC50 in series [1] (setting [2]) was greater than 25 µM.

As for `CCOC(=O)c1ccc(COc2ccccc2C(=O)Nc2cccnc2)cc1` [Scheme I-19, 4-((2-(pyridin-3-ylcarbamoyl)phenoxy)methyl) benzene carboxylic acid ethyl ester], in series [1] (at 10 μM), the inhibition at 10 µM worked out at 2.9%. For the same compound, the IC50 in series [1] (setting [2]) is greater than 100 µM.

On to “2-((2,6-dimethyl) benzyloxy)-N-(pyridin-3-yl) benzamide [Scheme I-29]”, for which the inhibition rate in series [1] (at 10 μM) was determined as 88.8%. The IC50 in series [1] (setting [2]) stood at 0.9 µM.
